# Experimental data: patent US7282507B2, “Indole derivatives as selective androgen receptor modulators (SARMS)” (Janssen Pharmaceutica N.V., priority 2004, dated 2007)
# Molecular target: T1, androgen receptor LBD (Panvera) (Rattus norvegicus, UniProt P15207)
# T1 construct: 5 pmol androgen receptor LBD (Panvera); purchased Panvera
# T1 sequence (P15207 651-882 limits assumed): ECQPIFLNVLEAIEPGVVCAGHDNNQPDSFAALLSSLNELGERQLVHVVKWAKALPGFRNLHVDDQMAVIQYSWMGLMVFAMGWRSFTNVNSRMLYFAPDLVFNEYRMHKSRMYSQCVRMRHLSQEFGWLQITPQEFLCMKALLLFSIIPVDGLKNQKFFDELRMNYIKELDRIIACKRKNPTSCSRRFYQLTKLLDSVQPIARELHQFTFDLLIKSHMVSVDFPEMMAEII
# Assay: Androgen Receptor Filtration Binding Assay (PANVERA)
# Settings: [3H] R1881 tracer 0.5 nM; read-out: IC50 (nM), Androgen Receptor Binding (Panvera)
structure (smiles),measurement,value
CC(O)(CSc1ccc(N)cc1)c1cc2cc(Cl)c(C(F)(F)F)cc2[nH]1 (stereo not shown) [Compound 104],IC50,930 nM
